Laboratory results as given in paper PMC8953660, “Selective measurement of NAPE-PLD activity via a PLA1/2-resistant fluorogenic N-acyl-phosphatidylethanolamine analog” (Journal of Lipid Research, 2021).
Like-named read-outs stand apart in the source and are kept apart here.

Molecular target: T1, recombinant mouse Nape-pld (NAPE-PLD) (Mus musculus, UniProt Q8BH82)
T1 construct: gene Napepld
Details: 50 mM Tris-HCl pH 8.0, N-octyl-β-D-glucoside, 37 °C, allosteric sigmoidal fit

T1 sequence (Q8BH82 whole entry): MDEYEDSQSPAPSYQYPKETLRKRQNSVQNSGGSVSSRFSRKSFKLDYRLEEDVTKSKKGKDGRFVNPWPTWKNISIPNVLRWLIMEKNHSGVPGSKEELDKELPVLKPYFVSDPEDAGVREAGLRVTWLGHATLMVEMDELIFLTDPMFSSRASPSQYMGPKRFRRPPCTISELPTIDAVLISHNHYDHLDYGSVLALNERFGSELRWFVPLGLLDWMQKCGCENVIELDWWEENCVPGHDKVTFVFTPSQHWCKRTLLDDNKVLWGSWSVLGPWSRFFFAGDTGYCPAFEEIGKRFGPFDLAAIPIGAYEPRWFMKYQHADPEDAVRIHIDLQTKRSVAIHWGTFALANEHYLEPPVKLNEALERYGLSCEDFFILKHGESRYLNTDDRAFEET

**Q.** For `CCCCCCO[C@H](COC(=O)CCCCC1=[N+]2C(=Cc3c(C)cc(C)n3[B-]2(F)F)C=C1)COP(=O)(O)OCCNC(=O)CCCCCNc1ccc([N+](=O)[O-])cc1[N+](=O)[O-]` [PED-A1], which Km is on record?
**A.** 4 µM

**Q.** For `CCCCCCO[C@@H](COP(=O)(O)OCCNC(=O)CCCCCNc1ccc([N+](=O)[O-])cc1[N+](=O)[O-])CN(C)C(=O)CCCCc1ccc2n1[B-](F)(F)[N+]1=C(C)C=C(C)C1=C2` [flame-NAPE], which Km (authors note evidence of an inadequate regression model for flame-NAPE) is on record?
**A.** 9.2 µM
